{"source": "patent EP1060190B1", "about": "“NEW SALT FORMS OF (2E)- 5-AMINO-5- METHYLHEX-2- ENOIC ACID N-METHYL-N-((1R)-1-(N- METHYL-N-((1R)-1-(METHYLCARBAMOYL)-2- PHENYLETHYL)CARBAMOYL)-2- (2-NAPHTYL)ETHYL)AMIDE” (NOVO NORDISK A/S, priority 1998, dated 1999)", "test": "Exposure of the anhydrous salt form to high humidity (solid form stability)", "format": "physicochemical", "conditions": "e.g. 10 weeks at 98% RH", "note": "Structures can show the parent of a compound that is named as a salt."}
{"smiles": "CNC(=O)[C@@H](Cc1ccccc1)N(C)C(=O)[C@@H](Cc1ccc2ccccc2c1)N(C)C(=O)/C=C/CC(C)(C)N", "note": "[compound I,hfum, compound I,hemi fumarate]", "values": [{"measurement": "Exposure of the anhydrous form to high humidity", "result": "produced the hydrous form"}]}
